Results published in article PMC4926326, “Synthesis, Biological Activity, and Apoptotic Properties of NO-Donor/Enmein-Type ent-Kauranoid Hybrids” (International Journal of Molecular Sciences, 2016).
Converted amounts (≈) assume the structure as drawn. Like-named read-outs stand apart in the source and are kept apart here.

What was measured:
[1] = system: Bel-7402 hepatoma cell line; test: MTT antiproliferative assay; format: cell-based, human; conditions: for IC50: Homo sapiens, read-out: IC50 Bel-7402; for SI (selectivity index): SI = IC50, L-02/IC50, Bel-7402
Description: (§1) The antiproliferative activity of 9a–i against four human cancer cell lines K562 leukemia cell line, MGC-803 gastric cancer cell line, CaEs-17 esophageal cancer cell line, and Bel-7402 hepatoma cell line, and human normal liver cells L-02 was evaluated by MTT assay (Table 2).
(§2) MTT assay was developed to monitor mammalian cell survival and proliferation in vitro [32]. CaEs-17 cells (K562, Bel-7402 and MGC-803 cells) from American Type Culture Collection (ATCC, Manassas, VA, USA) were cultivated in RPMI-1640 medium supplemented with 5% fetal bovine serum (v/v), 100 U/mL penicillin, and […] streptomycin. Cells (5 × 10^4 cell/mL) at the log phase of their growth cycle were added to each well of a 96-well plate (100 µL/well) and incubated for 24 h at 37 °C in a humidified atmosphere of 5% CO2. Then, cells were treated with or without test compounds in different concentrations. After 72 h, 5 mg/mL MTT solution (20 µL per well) was added. Cells were incubated at 37 °C. After 4 h, MTT solution was removed and DMSO was added to each well (150 µL). Ten minutes later at room temperature, the optical density (OD) values were measured at the wavelength of 490 nm on a Microplate Reader NO. 550 (BIO-RAD Instruments Inc., Hercules, CA, USA). In this experiment, 10 µg/mL of Taxol was used as the positive control and 0.1% DMSO was used as the negative reference.

K562 leukemia cell line = test: MTT antiproliferative assay; format: cell-based, human; conditions: read-out: IC50 K562
Description: as §1, §2

[2] = system: MGC-803 gastric cancer cell line; test: MTT antiproliferative assay; format: cell-based, human; conditions: read-out: IC50 MGC-803
Description: as §1, §2

[3] = system: Monilia albicans (ATCC 10231); test: Antifungal assay, microbroth dilution MIC; format: cell-based; conditions: Candida albicans, read-out: MIC M. albicans
Excerpt: (§3) The antibacterial activity of NO donor/enmein-type ent-kauranoid hybrids 9a–i against the Gram-negative bacterium Escherichia coli (ATCC 25922), Gram-positive bacterium Staphylococcus aureus (ATCC 29213) and Bacillus subtilis (CMCC 63501), and the fungus Monilia albicans (ATCC 10231) was first disclosed and summarized in Table 1. […] Thus, the introduction of NO-donor substituent groups at the 14-position of enmein-type 6,7-seco-ent-kauranoid could improve antimicrobial activity against S. aureus and B. subtilis.
(§4) The minimal inhibitory concentrations (MICs) were carried out by microbroth dilution method described by the Clinical Laboratory Standards Institute. A stock solution of all the target compounds was prepared with DMSO-medium (1:2), and then graded quantities of the test compounds were diluted with medium. The specified concentration suspension of fungus and bacterium contained approximately 10^3, and 10^5 CFU/mL was added into microtitration plates. The inoculated 96-well plates were incubated at 35 °C for 18 h. MIC was defined as the lowest concentrations that prevented visible growth of the bacteria.

[4] = system: human normal liver cells L-02; test: MTT assay on normal cells; format: cell-based; conditions: 72 h, read-out: IC50 L-02
Description: as §1, §2

[5] = system: CaEs-17 esophageal cancer cell line; test: MTT antiproliferative assay; format: cell-based; conditions: Homo sapiens, read-out: IC50 CaEs-17
Description: as §1, §2

[6] = system: Staphylococcus aureus (ATCC 29213); test: Antibacterial assay, microbroth dilution MIC; format: cell-based; conditions: for MIC: Staphylococcus aureus, read-out: MIC S. aureus
Excerpt: as §3, §4

[7] = system: Escherichia coli (ATCC 25922); test: Antibacterial assay, microbroth dilution MIC; format: cell-based; conditions: for MIC: Escherichia coli, read-out: MIC E. coli
Excerpt: as §3, §4

[8] = system: Bacillus subtilis (CMCC 63501); test: Antibacterial assay, microbroth dilution MIC; format: cell-based; conditions: for MIC: Bacillus subtilis, read-out: MIC B. subtilis
Excerpt: as §3, §4

[9] = Bel-7402, MTT, 72 h, mean ± SD of three experiments
[10] = Homo sapiens, K562, 72 h, MTT, 72 h, mean ± SD of three experiments
[11] = Homo sapiens, MGC-803, 72 h, MTT, 72 h, mean ± SD of three experiments
[12] = MTT, normal liver cells, mean ± SD of three experiments
[13] = CaEs17, MTT, 72 h, mean ± SD of three experiments
[14] = MTT, 72 h, mean ± SD of three experiments

| Compound | IC50 [1, 9] [nM] | SI (selectivity index) [1] | IC50 (K562 leukemia cell line; [10]) [nM] | IC50 [2, 11] [nM] | MIC ([3]; ATCC10231, 35 °C, 18 h) [µg/mL] | IC50 [4, 12] [nM] | melting point [°C] | IC50 [5, 13] [nM] | MIC ([6]; ATCC29213, 35 °C, 18 h) [µg/mL] | MIC ([7]; ATCC25922, 35 °C, 18 h) [µg/mL] | MIC ([8]; CMCC63501, 35 °C, 18 h) [µg/mL] | other results |
| --- | --- | --- | --- | --- | --- | --- | --- | --- | --- | --- | --- | --- |
| C=C1C(=O)[C@@]23C(=O)O[C@H]4CCC(C)(C)[C@H]5[C@H](O)OC[C@@]45[C@@H]2CC[C@@H]1[C@H]3OC(=O)CCCC(=O)OCCOc1no[n+]([O-])c1S(=O)(=O)c1ccccc1 [Compound 9b] | 1200 ± 80 | 13.9 | 2310 ± 210 | 1620 ± 80 | > 100 | 16700 ± 170 | 88 to 89 | 4830 ± 300 | 4 (≈ 5.37 µM) | > 100 | 2 (≈ 2.69 µM) |  |
| C=C1C(=O)[C@]23[C@H](O)[C@H]1CC[C@H]2[C@@]12CO[C@]3(O)[C@@H](O)[C@@H]1C(C)(C)CC[C@@H]2O [Compound 7, oridonin, reference compound] | 7480 ± 530 | 2.4 | 4760 ± 320 | 5690 ± 390 | > 100 | 18300 ± 810 |  | 11000 ± 1020 | 32 (≈ 87.8 µM) | > 100 | 32 (≈ 87.8 µM) |  |
| C=C1C(=O)[C@@]23C(=O)O[C@H]4CCC(C)(C)[C@H]5[C@H](O)OC[C@@]45[C@@H]2CC[C@@H]1[C@H]3OC(=O)CCCC(=O)OCCCOc1no[n+]([O-])c1S(=O)(=O)c1ccccc1 [Compound 9e] | 920 ± 50 | 18.6 | 1920 ± 90 | 1290 ± 120 | > 100 | 17200 ± 770 | 82 to 84 | 4270 ± 350 | 16 (≈ 21.1 µM) | > 100 | 16 (≈ 21.1 µM) |  |
| C=C1C(=O)[C@@]23C(=O)O[C@H]4CCC(C)(C)[C@H]5[C@H](O)OC[C@@]45[C@@H]2CC[C@@H]1[C@H]3OC(=O)CCC(=O)OCCOc1no[n+]([O-])c1S(=O)(=O)c1ccccc1 [Compound 9a] | 1330 ± 100 | 7.7 | 2470 ± 160 | 1830 ± 160 | > 100 | 10400 ± 610 | 92 to 94 | 5120 ± 420 | 16 (≈ 21.9 µM) | > 100 | 64 (≈ 87.6 µM) |  |
| OC(Cn1cncn1)(Cn1cncn1)c1ccc(F)cc1F [Fluconazole, reference compound] |  |  |  |  | 4 (≈ 13.1 µM) |  |  |  |  |  |  |  |
| C=C1C(=O)[C@@]23C(=O)O[C@H]4CCC(C)(C)[C@H]5[C@H](O)OC[C@@]45[C@@H]2CC[C@@H]1[C@H]3OC(=O)CCCC(=O)OCCCCOc1no[n+]([O-])c1S(=O)(=O)c1ccccc1 [Compound 9h] | 1080 ± 50 | 11.1 | 2110 ± 160 | 1490 ± 110 | > 100 | 12100 ± 1080 | 78 to 80 | 4680 ± 310 | 16 (≈ 20.7 µM) | > 100 | 16 (≈ 20.7 µM) |  |
| C=C1C(=O)[C@@]23C(=O)O[C@H]4CCC(C)(C)[C@H]5[C@H](O)OC[C@@]45[C@@H]2CC[C@@H]1[C@H]3OC(=O)CCC(=O)OCCCOc1no[n+]([O-])c1S(=O)(=O)c1ccccc1 [Compound 9d] | 1230 ± 80 | 11.0 | 2150 ± 120 | 1500 ± 100 | > 100 | 13600 ± 1310 | 110 to 112 | 4980 ± 420 | 4 (≈ 5.37 µM) | > 100 | 2 (≈ 2.69 µM) |  |
| C=C1C(=O)[C@@]23C(=O)O[C@H]4CCC(C)(C)[C@H]5[C@H](O)OC[C@@]45[C@@H]2CC[C@@H]1[C@H]3OC(=O)CCC(=O)OCCCCOc1no[n+]([O-])c1S(=O)(=O)c1ccccc1 [Compound 9g] | 1270 ± 110 | 9.1 | 2260 ± 80 | 1430 ± 80 | > 100 | 11600 ± 390 | 85 to 87 | 5130 ± 220 | 16 (≈ 21.1 µM) | > 100 | 16 (≈ 21.1 µM) |  |
| O=C(N[C@H](CO)[C@H](O)c1ccc([N+](=O)[O-])cc1)C(Cl)Cl [Chloromycetin, reference compound] |  |  |  |  |  |  |  |  |  |  |  | MIC S. aureus ([6]; 35 °C, 18 h): 4 µg/mL (≈ 12.4 µM); MIC E. coli ([7]; 35 °C, 18 h): 4 µg/mL (≈ 12.4 µM); MIC B. subtilis ([8]; 35 °C, 18 h): 8 µg/mL (≈ 24.8 µM) |
| C=C1C(=O)[C@@]23C(=O)O[C@H]4CCC(C)(C)[C@H]5[C@H](O)OC[C@@]45[C@@H]2CC[C@@H]1[C@H]3OC(=O)c1ccccc1C(=O)OCCCCOc1no[n+]([O-])c1S(=O)(=O)c1ccccc1 [Compound 9i] | 780 ± 40 | 18.6 | 1250 | 1860 | > 100 | 14600 ± 860 | 126 to 128 | 3820 ± 190 | 16 (≈ 19.8 µM) | > 100 | 2 (≈ 2.48 µM) | IC50 (K562 leukemia cell line; [14]): 1860 ± 180 nM; IC50 [2, 14]: 1250 ± 100 nM |
| CC(=O)O[C@H]1C(=O)[C@@]2(C)[C@H]([C@H](OC(=O)c3ccccc3)[C@]3(O)C[C@H](OC(=O)[C@H](O)[C@@H](NC(=O)c4ccccc4)c4ccccc4)C(C)=C1C3(C)C)[C@]1(OC(C)=O)CO[C@@H]1C[C@@H]2O [Taxol, reference compound] | 1890 ± 90 | 1.9 | 410 ± 20 | 850 ± 60 |  | 3730 ± 170 |  | 430 ± 30 |  |  |  |  |
| C=C1C(=O)[C@@]23C(=O)O[C@H]4CCC(C)(C)[C@H]5[C@H](O)OC[C@@]45[C@@H]2CC[C@@H]1[C@H]3O [Compound 8] |  |  |  |  |  |  |  |  |  |  |  | IC50 ([1]; Bel-7402, 72 h): 33000 ± 2190 nM; IC50 (K562 leukemia cell line; Homo sapiens, K562, 72 h): 8110 ± 760 nM; IC50 ([2]; Homo sapiens, MGC-803, 72 h): 14200 ± 1220 nM; MIC ([3]; ATCC10231, 18 h): > 100 µg/mL; IC50 [4]: 24400 ± 1590 nM; IC50 ([5]; CaEs17, 72 h): 30800 ± 2090 nM; MIC ([6]; ATCC29213, 18 h): > 100 µg/mL; MIC ([7]; ATCC25922, 18 h): > 100 µg/mL; MIC ([8]; CMCC63501, 18 h): > 100 µg/mL |
| C=C1C(=O)[C@@]23C(=O)O[C@H]4CCC(C)(C)[C@H]5[C@H](O)OC[C@@]45[C@@H]2CC[C@@H]1[C@H]3OC(=O)c1ccccc1C(=O)OCCOc1no[n+]([O-])c1S(=O)(=O)c1ccccc1 [Compound 9c] | 830 ± 60 | 23.9 | 1930 ± 100 | 1340 ± 130 | > 100 | 19870 ± 180 | 137 to 139 | 3760 ± 370 | 8 (≈ 10.3 µM) | > 100 | 4 (≈ 5.14 µM) |  |
